“And” between values parts separate entries of the source, which are not always exact repeats. Equal entries are not always repeated. “Also recorded” adds a separate entry of the source.
Assays:
[1] = Wst-1 cell viability assay after H2O2 + TNFα stress, motor neuron cell line; type: cell-based, mouse; details: mouse; NPD 100 nM alone, 24 hrs incub., control (veh.) = 100
Procedure: (§1) Pharma Inc.) were added to the growth medium. […] NPD1, or Compound 1 in Table 1, was analyzed for activity in NCS34 cells, a mouse motor neuron cell line. […] Treatment with H2O2 and 10 ng/ml TNFα caused between 26-37% cell death in the motor neurons (FIG. 1).

NSC34 cells = experiment: as above; type: cell-based, mouse
Procedure: as §1

C8-D1A cells = experiment: Wst-1 cell viability assay after H2O2 + TNFα stress, astrocyte cell line
Excerpt: It is well-known in the art that inflammation and oxidative stress are significant contributors to neurodegeneration. H2O2 is commonly used in experiments to simulate oxidate stress. […] Accordingly, in this in vitro assay, TNF-alpha and hydrogen peroxide (H2O2) were used as stressors to induce cell death to model ALS.
Cell viability after treatment with H2O2 and TNFα was examined in NCS34 cells, a mouse motor neuron cell line, and in C8-D1A cells, a mouse astrocyte cell line (from the American Type Tissue Culture Collection). The protocol for assessing the activity of any of the compounds disclosed herein in cultured cells is as follows:
Day 1: Cells were plated into 96 well plates at a confluency of 60%. Cells were maintained in growth medium consisting of Dulbecco's Modified Essential Medium (DMEM, LifeTechnologies Inc.) supplemented with 10% fetal bovine serum (Hyclone) and incubated in a tissue culture incubator at 37° C., 95% […] and 5% CO2.
Day 2: The growth medium was changed to 200 μl/well DMEM without fetal bovine serum. Additional agents, such as varying concentrations of H2O2 (Sigma Aldrich Inc.), TNFalpha, and a vehicle control or any of the compounds disclosed herein, e.g., NPD1 (Anida Pharma Inc.) were added to the growth medium. The cells were incubated overnight for 24 hours in a tissue culture incubator at 37° C., 95% […] and 5% CO2
Day 3: After 24 hours, 20 μl of Wst-1 cell viability reagent (Roche Applied Sciences Inc.) was added to each well (1:10 dilution in growth medium). Mix well by gently rocking the plate side-to-side. The cells were incubated at 37° C. for 60 minutes. […] A background control (or blank) for the growth medium and WST-1 reagent (without cells) can also be measured. The 630 nm background absorbance values are then subtracted from the 450 nm measurement for a normalized 450 nm absorbance value.
NPD1 activity was analyzed in C8-D1A cells, a mouse astrocyte cell line (American Type Tissue Culture Collection). C8-D1A cells were treated with increasing concentrations of H2O2 (1 μM, 10 μM, 50 μM, 100 μM, 400 μM and 800 μM) and 10 ng/ml TNFα without NPD1, or with 50 nM or 100 nM NPD1 for 24 hours. Cell viability was determined by Wst-1 cell viability assay, as described in Example 1. Each sample was performed in triplicate.

[2] = NPD 100 nM + TNFa 10 ng/ml + H2O2 1 uM, 24 hrs
[3] = NPD 100 nM + TNFa 10 ng/ml + H2O2 10 uM, 24 hrs
[4] = NPD 100 nM + TNFa 10 ng/ml + H2O2 50 uM, 24 hrs
[5] = NPD 100 nM + TNFa 10 ng/ml + H2O2 100 uM, 24 hrs
[6] = NPD 100 nM + TNFa 10 ng/ml + H2O2 400 uM, 24 hrs
[7] = NPD 100 nM + TNFa 10 ng/ml + H2O2 800 uM, 24 hrs
[8] = 0 uM H2O2 + 10 ng/ml TNFa, 50 nM NPD1, 24 hours
[9] = 0 uM H2O2 + 10 ng/ml TNFa, 100 nM NPD1, 24 hours
[10] = 25 uM H2O2 + 10 ng/ml TNFa, 50 nM NPD1, 24 hours
[11] = 25 uM H2O2 + 10 ng/ml TNFa, 100 nM NPD1, 24 hours
[12] = 50 uM H2O2 + 10 ng/ml TNFa, 50 nM NPD1, 24 hours
[13] = 50 uM H2O2 + 10 ng/ml TNFa, 100 nM NPD1, 24 hours
[14] = 100 uM H2O2 + 10 ng/ml TNFa, 50 nM NPD1, 24 hours
[15] = 100 uM H2O2 + 10 ng/ml TNFa, 100 nM NPD1, 24 hours
[16] = 200 uM H2O2 + 10 ng/ml TNFa, 50 nM NPD1, 24 hours
[17] = 200 uM H2O2 + 10 ng/ml TNFa, 100 nM NPD1, 24 hours
[18] = 400 uM H2O2 + 10 ng/ml TNFa, 50 nM NPD1, 24 hours
[19] = 400 uM H2O2 + 10 ng/ml TNFa, 100 nM NPD1, 24 hours
[20] = 800 uM H2O2 + 10 ng/ml TNFa, 50 nM NPD1, 24 hours
[21] = 800 uM H2O2 + 10 ng/ml TNFa, 100 nM NPD1, 24 hours
[22] = Mus musculus, C8-D1A, read-out: % cell viability

SMILES: CC/C=C\C[C@H](O)\C=C/C=C/C=C/[C@H](O)C/C=C\C/C=C\CCC(=O)[O-].[Na+] [NPD1, Sodium 4Z,7Z,10R,11E,13E,15Z,17S, 19Z)-10,17-dihydroxydocosa-4,7,11,13,15,19-hexaenoate]
- viability at 24 h, 100 nM [1]: 95.6%
- cell viability (in words) (NSC34 cells; 100 nM NPD1, 24 hours with H2O2 and 10 ng/ml TNFα): increased cell viability
- viability at 0.1 µM (NSC34 cells; Mus musculus, NSC-34, read-out: % cell viability): 78%
- % Cell Viability (NSC34 cells; [2]): 105.1%
- Avg Abs 450 nm (NSC34 cells; [2]): 0.7104
- % Cell Viability (NSC34 cells; [3]): 95.6%
- Avg Abs 450 nm (NSC34 cells; [3]): 0.645
- % Cell Viability (NSC34 cells; NPD 100 nM + TNFa 10 ng/ml + H2O2 10 uM, 24 hrs, listed as NPD): 95.45%
- % Cell Viability (NSC34 cells; [4]): 74.46%
- Avg Abs 450 nm (NSC34 cells; [4]): 0.5031
- % Cell Viability (NSC34 cells; [5]): 78.22%
- Avg Abs 450 nm (NSC34 cells; [5]): 0.5285
- % Cell Viability (NSC34 cells; [6]): 78.26%
- Avg Abs 450 nm (NSC34 cells; [6]): 0.5288
- % Cell Viability (NSC34 cells; [7]): 81.41%
- Avg Abs 450 nm (NSC34 cells; [7]): 0.5501
- Avg Abs 450 nm (NSC34 cells; NPD 100 nM alone, 24 hrs incub.): 0.6462
- Percent saved with NPD1 (14/36) (NSC34 cells; NPD1 100 nM vs TNFa + H2O2 alone): 39%
- cell viability (in words) (NSC34 cells; NPD1 added to cells treated with 50-800 μM H2O2 and 10 ng/ml TNFα): increases in cell viability
- % cells apoptosed (NSC34 cells; TNFa + H2O2 + NPD1 100 nM (TNFa + H2O2 alone: 36)): 22%
- absorbance after subtraction of background signal, avg (C8-D1A cells; [8]): 0.586 and 0.5861
- absorbance after subtraction of background signal, replicates 1-3 (C8-D1A cells; [8]): 0.561 and 0.632 and 0.565
- raw absorbance Avg. (C8-D1A cells; [8]): 1.03
- raw absorbance, replicates 1-3 (C8-D1A cells; [8]): 1.0047 and 1.0764 and 1.0093
- absorbance after subtraction of background signal, avg (C8-D1A cells; [9]): 0.593 and 0.5931
- absorbance after subtraction of background signal, replicates 1-3 (C8-D1A cells; [9]): 0.565 and 0.587 and 0.627
- raw absorbance Avg. (C8-D1A cells; [9]): 1.037
- raw absorbance, replicates 1-3 (C8-D1A cells; [9]): 1.0312 and 1.071 and 1.009
- astrocyte cell survival and viability (in words) (C8-D1A cells; 50 nM or 100 nM NPD1, H2O2 + 10 ng/ml TNFα, 24 hours): increased cell survival and viability in a dose-dependent manner; also recorded: increased astrocyte viability and reduced astrocyte death
- absorbance after subtraction of background signal, avg (C8-D1A cells; [10]): 0.560 and 0.5597
- absorbance after subtraction of background signal, replicates 1-3 (C8-D1A cells; [10]): 0.551 and 0.541 and 0.588
- raw absorbance Avg. (C8-D1A cells; [10]): 1.004
- raw absorbance, replicates 1-3 (C8-D1A cells; [10]): 0.9946 and 0.985 and 1.0316
- absorbance after subtraction of background signal, avg (C8-D1A cells; [11]): 0.555 and 0.5549
- absorbance after subtraction of background signal, replicates 1-3 (C8-D1A cells; [11]): 0.563 and 0.524 and 0.578
- raw absorbance Avg. (C8-D1A cells; [11]): 0.9989
- raw absorbance, replicates 1-3 (C8-D1A cells; [11]): 0.9676 and 1.0219 and 1.0073
- absorbance after subtraction of background signal, avg (C8-D1A cells; [12]): 0.392 and 0.3915
- absorbance after subtraction of background signal, replicates 1-3 (C8-D1A cells; [12]): 0.416 and 0.399 and 0.360
- raw absorbance Avg. (C8-D1A cells; [12]): 0.8355
- raw absorbance, replicates 1-3 (C8-D1A cells; [12]): 0.8604 and 0.8427 and 0.8035
- absorbance after subtraction of background signal, avg (C8-D1A cells; [13]): 0.412 and 0.4123
- absorbance after subtraction of background signal, replicates 1-3 (C8-D1A cells; [13]): 0.434 and 0.390 and 0.414
- raw absorbance Avg. (C8-D1A cells; [13]): 0.8563
- raw absorbance, replicates 1-3 (C8-D1A cells; [13]): 0.8335 and 0.8579 and 0.8776
- absorbance after subtraction of background signal, avg (C8-D1A cells; [14]): 0.070 and 0.07003
- absorbance after subtraction of background signal, replicates 1-3 (C8-D1A cells; [14]): 0.029 and 0.072 and 0.109
- raw absorbance Avg. (C8-D1A cells; [14]): 0.514
- raw absorbance, replicates 1-3 (C8-D1A cells; [14]): 0.4731 and 0.5164 and 0.5526
- absorbance after subtraction of background signal, avg (C8-D1A cells; [15]): 0.128 and 0.1278
- absorbance after subtraction of background signal, replicates 1-3 (C8-D1A cells; [15]): 0.125 and 0.138 and 0.120
- raw absorbance Avg. (C8-D1A cells; [15]): 0.5718
- raw absorbance, replicates 1-3 (C8-D1A cells; [15]): 0.5823 and 0.5639 and 0.5691
- absorbance after subtraction of background signal, replicates 1-3 (C8-D1A cells; [16]): −0.021 and −0.023 and −0.022
- raw absorbance Avg. (C8-D1A cells; [16]): 0.4217
- raw absorbance, replicates 1-3 (C8-D1A cells; [16]): 0.4228 and 0.4206 and 0.4217
- absorbance after subtraction of background signal, replicates 1-3 (C8-D1A cells; [17]): −0.027 and −0.023 and −0.015
- raw absorbance Avg. (C8-D1A cells; [17]): 0.4222
- raw absorbance, replicates 1-3 (C8-D1A cells; [17]): 0.4209 and 0.429 and 0.4166
- absorbance after subtraction of background signal, replicates 1-3 (C8-D1A cells; [18]): −0.018 and −0.017 and −0.014
- raw absorbance Avg. (C8-D1A cells; [18]): 0.4274
- raw absorbance, replicates 1-3 (C8-D1A cells; [18]): 0.4258 and 0.4267 and 0.4296
- absorbance after subtraction of background signal, replicates 1-3 (C8-D1A cells; [19]): −0.015 and −0.016 and −0.013
- raw absorbance Avg. (C8-D1A cells; [19]): 0.4291
- raw absorbance, replicates 1-3 (C8-D1A cells; [19]): 0.4277 and 0.4307 and 0.4289
- absorbance after subtraction of background signal, replicates 1-3 (C8-D1A cells; [20]): −0.001 and −0.006 and 0.000
- raw absorbance Avg. (C8-D1A cells; [20]): 0.4415
- raw absorbance, replicates 1-3 (C8-D1A cells; [20]): 0.4431 and 0.4376 and 0.4439
- absorbance after subtraction of background signal, avg (C8-D1A cells; [21]): 0.005 and 0.004833
- absorbance after subtraction of background signal, replicates 1-3 (C8-D1A cells; [21]): 0.002 and 0.004 and 0.008
- raw absorbance Avg. (C8-D1A cells; [21]): 0.4488
- raw absorbance, replicates 1-3 (C8-D1A cells; [21]): 0.4484 and 0.4523 and 0.4458
- viability at 0.05 µM (C8-D1A cells; [22]): 12%
- viability at 0.1 µM (C8-D1A cells; [22]): 23%
- % cells apoptosed (C8-D1A cells; TNFa + H2O2 + NPD1 50 nM (TNFa + H2O2 alone: 99)): 88%
- % cells apoptosed (C8-D1A cells; TNFa + H2O2 + NPD1 100 nM (TNFa + H2O2 alone: 99)): 77%

Source: US9340483B2, “Methods of treating amyotrophic lateral sclerosis” (Anida Pharma Inc., priority 2012, dated 2016)
